Data taken from patent publication US12419869B2, “Methods of treating multiple sclerosis” (Vanda Pharmaceuticals Inc., priority 2021, dated 2025).

Legend:
Type in all cases: in vivo, human
[1] = tested on: adult subjects with relapsing MS; assay: EDSS, time to first 12-week / 24-week confirmed disability accumulation (CDA); details: for Hazard ratio, time to first 12-week CDA (3-month CDP), ponesimod vs teriflunomide: stratified Cox regression
Description: (§1) A 12-week CDA is an increase of at least 1.5 in EDSS for subjects with a baseline EDSS score of 0.0 or an increase of at least 1.0 in EDSS for subjects with a baseline EDSS score of 1.0 to 5.0, or an increase of at least 0.5 in EDSS for subjects with a baseline EDSS score≥5.5 which is to be confirmed after 12 weeks.
All EDSS measurements (with or without relapse, at a scheduled or unscheduled visit) were used to determine the onset of disability accumulation. However, EDSS scores used for confirmation of disability accumulation were obtained at a scheduled visit (i.e., unscheduled visits cannot be used as confirmatory visits) outside any ongoing relapse. In this context, relapse duration is defined as period between start and end dates if available and limited to 90 days from onset if end date is not available or duration is longer than 90 days.
In order to confirm that the EDSS increase is persistent, all EDSS measurements between the onset and the 12-week EDSS confirmation (minus 7-day visit time-window) need to show an increase in EDSS, meeting the criteria for accumulation of disability as defined above.
as §1, with “24-week” for “12-week”, “24” for “12”
The primary endpoint was the annualized relapse rate (ARR) over the study period. Additional outcome measures included: 1) the number of new Gd-enhancing T1 lesions from baseline to Week 108, 2) the number of new or enlarging T2 lesions (without double-counting of lesions) from baseline to Week 108, and 3) the time to 3-month and 6-month confirmed disability progression. A confirmed disability progression was defined as an increase of at least 1.5 in EDSS for patients with a baseline EDSS score of 0, an increase of at least 1.0 in EDSS for patients with a baseline EDSS score of 1.0 to 5.0, or an increase of at least 0.5 in EDSS for patients with a baseline EDSS score at least 5.5, which was confirmed after 3 months and 6 months.

[2] = tested on: adult subjects with relapsing MS; assay: Pulmonary function (percent predicted FEV1), Study 1
Procedure: In Study 1, the reduction from baseline in percent predicted FEV1 at 2 years was 8.3% in PONVORY-treated patients compared to 4.4% in patients receiving teriflunomide 14 mg. In Study 1, 7 patients discontinued PONVORY because of pulmonary adverse events. There is insufficient information to determine the reversibility of the decrease in FEV1 or FVC after treatment discontinuation. PONVORY should be used with caution in patients with severe respiratory disease (i.e., pulmonary fibrosis, asthma, and chronic obstructive pulmonary disease). Spirometric evaluation of respiratory function should be performed during therapy with PONVORY if clinically indicated.

[3] = tested on: adult subjects with relapsing MS; assay: Treatment-emergent adverse events and premature treatment discontinuation, phase III study (Study 1); details: in vivo
Procedure: A total of 1438 MS patients have received PONVORY at doses of at least 2 mg daily. These patients were included in Study 1 (2-year active-controlled versus teriflunomide 14 mg) [see Clinical Studies (14)] and in a Phase 2 (6-month placebo-controlled) study in patients with MS and the uncontrolled extension studies.

CCC/N=C1\S/C(=C\c2ccc(OC[C@H](O)CO)c(Cl)c2)C(=O)N1c1ccccc1C [Ponesimod, (R)-5-[3-chloro-4-(2,3-dihydroxy-propoxy)-benz[Z]ylidene]-2-([Z]-propylimino)-3-o-tolyl-thiazolidin-4-one]
Proportion of Patients with 3-month Confirmed Disability Progression ([1]; Kaplan-Meier estimates at Week 108): 10.8% | Hazard ratio, time to first 24-week CDA, ponesimod vs teriflunomide ([1]; exploratory): 0.84 | Reduction of risk of 12-week CDA compared to teriflunomide 14 mg ([1]; not statistically significant): 17% | Reduction of risk of 24-week CDA compared to teriflunomide 14 mg ([1]; not statistically significant): 16% | Hazard ratio, time to first 12-week CDA (3-month CDP), ponesimod vs teriflunomide [1]: 0.83 | Hazard ratio, time to first 12-week CDA (3-month CDP), ponesimod vs teriflunomide ([1]; listed as PONVORY): 0.83 (p = 0.29) | Hazard ratio, time to first 12-week CDA (3-month CDP), ponesimod vs teriflunomide ([1]; listed as ponesimod): 0.83 | Subjects with 12-week CDA ([1]; up to EOS): 10.1% | Subjects with 24-week CDA ([1]; up to EOS): 8.1% | Patients who discontinued because of pulmonary adverse events [2]: 7 | Reduction from baseline in percent predicted FEV1 at 2 years [2]: 8.3% | Day 1 AESI Atrioventricular block first degree ([3]; human): (0.5) % | Day 1 AESI Bradycardia ([3]; human): (0.7) % | Day 1 AESI Bundle branch block left ([3]; human): (0.2) % | Day 1 AESI Bundle branch block right ([3]; human): (0.2) % | Day 1 AESI Defect conduction intraventricular ([3]; human): (0.4) % | Day 1 AESI Sinus arrhythmia ([3]; human): (0.2) % | Day 1 AESI Sinus bradycardia ([3]; human): (0.2) % | AE leading to discontinuation, SOC Blood and lymphatic system disorders ([3]; human, 2 year): (0.5) % | AE leading to discontinuation, SOC Cardiac disorders ([3]; human, 2 year): (0.2) % | AE leading to discontinuation, SOC Eye disorders ([3]; human, 2 year): (0.9) % | AE leading to discontinuation, SOC Gastrointestinal disorders ([3]; human, 2 year): (0.7) % | AE leading to discontinuation, SOC General disorders and administration site conditions ([3]; human, 2 year): (0.5) % | AE leading to discontinuation, SOC Hepatobiliary disorders ([3]; human, 2 year): (0.5) % | AE leading to discontinuation, SOC Investigations ([3]; human, 2 year): (2.1) % | AE leading to discontinuation, SOC Musculoskeletal and connective tissue disorders ([3]; human, 2 year): (0.2) % | AE leading to discontinuation, SOC Neoplasms benign, malignant and unspecified (incl cysts and polyps) ([3]; human, 2 year): (0.2) % | AE leading to discontinuation, SOC Nervous system disorders ([3]; human, 2 year): (0.4) % | AE leading to discontinuation, SOC Pregnancy, puerperium and perinatal conditions ([3]; human, 2 year): (0.5) % | AE leading to discontinuation, SOC Psychiatric disorders ([3]; human, 2 year): (0.2) % | AE leading to discontinuation, SOC Respiratory, thoracic and mediastinal disorders ([3]; human, 2 year): (1.2) % | AE leading to discontinuation, SOC Skin and subcutaneous tissue disorders ([3]; human, 2 year): (0.2) % | AE leading to discontinuation, SOC Social circumstances ([3]; human, 2 year): (0.4) % | AE leading to discontinuation, SOC Vascular disorders ([3]; human, 2 year): (0.5) % | AESI Effect on heart rate and rhythm (including hypotension) ([3]; human, 2 year): (5.1) % | AESI Non-skin malignancy ([3]; human, 2 year): (0.2) % | AESI Skin malignancy ([3]; human, 2 year): (0.9) % | Discontinuation reason: Physician decision, Adverse event ([3]; human, 2 year): (5.1) % | Discontinuation reason: Pre-specified study treatment discontinuation criteria ([3]; human, 2 year): (2.1) % | Discontinuation reason: Subject decision, Tolerability related ([3]; human, 2 year): (1.4) % | Incidence of basal cell carcinoma ([3]; human, 2 year): 0.4% | Overall rate of infections ([3]; human, 2 year): 54.2% | Subjects discontinued due to AEs or tolerability related reasons ([3]; human, 2 year): 6.5% | Subjects who prematurely discontinued study treatment ([3]; human, 2 year): (16.6) % | Subjects with at least one Drug-Related AE ([3]; human, 2 year): (49.2) % | Subjects with at least one Severe AE ([3]; human, 2 year): (6.9) % | TEAE ALT increased ([3]; human, 2 year): 19.5% | TEAE headache ([3]; human, 2 year): 11.5% | TEAE nasopharyngitis ([3]; human, 2 year): 19.3% | TEAE upper respiratory tract infection ([3]; human, 2 year): 10.6% | Adverse reaction: C-reactive protein increased ([3]; human, 2 years): 2% | Adverse reaction: Cough ([3]; human, 2 years): 4% | Adverse reaction: Dizziness ([3]; human, 2 years): 5% | Adverse reaction: Dyspnea ([3]; human, 2 years): 5% | Adverse reaction: Hepatic transaminase elevation ([3]; human, 2 years): 23% | Adverse reaction: Hypercholesterolemia ([3]; human, 2 years): 2% | Adverse reaction: Hypertension ([3]; human, 2 years): 10% | Adverse reaction: Pain in extremity ([3]; human, 2 years): 4% | Adverse reaction: Pyrexia ([3]; human, 2 years): 2% | Adverse reaction: Somnolence ([3]; human, 2 years): 3% | Adverse reaction: Urinary tract infection ([3]; human, 2 years): 6% | Adverse reaction: Vertigo ([3]; human, 2 years): 2% | Discontinuation reason: Lost to follow-up [3]: (0.4) % | Discontinuation reason: Physician decision [3]: (7.1) % | Discontinuation reason: Physician decision, Lack of efficacy/treatment failure [3]: (0.7) % | Discontinuation reason: Physician decision, Other [3]: (1.2) % | Discontinuation reason: Reason not provided [3]: (0.2) % | Discontinuation reason: Subject decision [3]: (6.9) % | Discontinuation reason: Subject decision, Efficacy related [3]: (1.2) % | Discontinuation reason: Subject decision, Not known [3]: (0.9) % | Discontinuation reason: Subject decision, Other [3]: (3.4) %
